Assay results reported in patent US8383637B2, “2-amino-quinazoline derivatives useful as inhibitors of β-secretase (BACE)” (Jansssen Pharmaceutica N.V., priority 2004, dated 2013).

How the values were obtained:
Format in all cases: biochemical
[1] = biological target: T1, β-secretase(BACE) (Homo sapiens, UniProt P56817); assay: BACE Assay-1 (MCA-substrate, IC50); settings: procedure of Example 158; read-out: IC50 μM (158)
T1 construct: purchased Panvera
Procedure: The following standards are reagents were used in this assay: Sodium Citrate trisodium salt dihydrate (Sigma), Citric Acid monohydrate (Merck), PEG8000 (Sigma), MCA-substrate (Bachem), β-secretase (BACE) (Panvera), 96-well plate zwart (Costar (Elscolab)), StatVal (Bachem).
The following standard assay buffer solution was prepared and used in this assay: 0.05 M, pH 5.0 mixture of sodium citrate trisodium salt dihydrate (9.56 g), citric acid monohydrate (3.68 g) and PEG8000 (0.50 g).
The MCA-substrate stock solution was prepared by mixing 10 mg MCA-substrate with 5 mL DMSO for a final solution concentration of 2.0 mg/mL. The substrate work solution was prepared by mixing 0.1 mL substrate in 1.90 mL assay buffer for a final concentration of 0.05 mM. The β-secretase (BACE) work solution was prepared by mixing 8 μL BACE in 2 mL assay buffer for a final concentration of 10 μg/mL.
The screen procedure for this assay was as follows. 60 μL of assay buffer was pippeted into each well of a 96-well plate. To each well was then pipetted 1 μL of test compound at the selected concentration. To each well was then added 20 μL of the β-secretase work solution and 20 μL of the MCA-substrate stock solution.
The procedure for the blank was as follows. 80 μL of assay buffer was pipetted into each well to be used as a blank control. To each well was then added 1 μL of DMSO and 20 μL of MCA-substrate solution in each well.
The procedure for the positive control was as follows. 60 μL of assay buffer was pipetted into each well to be used as a positive control. To each well was then added 1 μL of DMSO, 20 μL of BACE work solution and 20 μL of MCA-substrate stock solution.
For test compounds, measured at multiple concentrations, the measured T0 and T60 values were used to calculate an IC50 value using Graphpad Software (or PIR).

[2] = biological target: T1, β-secretase(BACE); assay: BACE Assay-2 (FS1 substrate, IC50 and Ki); settings: procedure of Example 159, FS1 substrate; read-out: Ki μM (159)
[3] = biological target: T1, β-secretase(BACE); assay: BACE FS1% Inhibition Assay; settings: FS1 substrate, read-out: % Inhibition (FS); for inhibition at 0.3 µM: 0.3 μM test compound; for inhibition at 1 µM: 1 μM test compound; for inhibition at 3 µM: 3 μM test compound
Method in brief: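 Percent inhibition at each tested concentration, referenced to enzyme-free blank and vehicle-only positive control. Reaction: compound and BACE (4 μg/mL working stock) mixed 20 min at room temperature before FS1 substrate (300 μg/mL working stock), then 1 h at room temperature.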

T1 sequence (P56817 46-501): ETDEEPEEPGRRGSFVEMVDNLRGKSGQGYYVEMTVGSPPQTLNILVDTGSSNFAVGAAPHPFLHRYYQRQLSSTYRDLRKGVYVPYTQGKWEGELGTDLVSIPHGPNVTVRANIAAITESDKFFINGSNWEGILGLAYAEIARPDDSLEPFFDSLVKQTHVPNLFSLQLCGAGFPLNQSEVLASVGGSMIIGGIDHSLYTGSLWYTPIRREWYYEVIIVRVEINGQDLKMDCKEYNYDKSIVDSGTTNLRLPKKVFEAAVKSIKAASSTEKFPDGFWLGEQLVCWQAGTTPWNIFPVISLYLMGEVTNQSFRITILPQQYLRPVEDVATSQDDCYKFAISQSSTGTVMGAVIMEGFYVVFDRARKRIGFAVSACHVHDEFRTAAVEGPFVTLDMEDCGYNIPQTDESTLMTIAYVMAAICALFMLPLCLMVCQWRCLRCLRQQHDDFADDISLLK

Compound | IC50 [1] | Ki [2] | inhibition at 0.3 µM [3] | inhibition at 1 µM [3] | inhibition at 3 µM [3]
CN(C(=O)CCN1Cc2cc(C(=O)c3ccc(F)cc3)ccc2N=C1N)C1CCCCC1 [Compound 2] | 26 µM |  |  |  | 
CCN(C(=O)CCN1Cc2cc(C(=O)c3ccccc3)ccc2N=C1N)C1CCCCC1 [Compound 3] | 4 µM |  |  |  | 
CN(C(=O)CCN1Cc2cc(C(=O)c3ccccc3)ccc2N=C1N)C1CCCCCC1 [Compound 4] | 2.5 µM |  |  |  | 
CN(C(=O)CCN1Cc2cc(C(=O)c3ccccc3)ccc2N=C1N)c1ccccc1 [Compound 13] | 16 µM |  |  |  | 
CC(C)N(C)C(=O)CCN1Cc2cc(C(=O)c3ccccc3)ccc2N=C1N [Compound 22] | 12 µM |  |  |  | 
NC1=Nc2ccc(C(=O)c3ccccc3)cc2CN1CCCCC(=O)NC1CCCCC1 [Compound 31] | 2.3 µM |  |  |  | 
CN(C(=O)CCN1Cc2cc(C(O)c3ccccc3)ccc2N=C1N)C1CCCCC1 (stereo not drawn) [Compound 32, 3-[2-Amino-6-(hydroxy-phenyl-methyl)-4H-quinazolin-3-yl]-N-cyclohexyl-N-methyl-propionamide] | 14 µM |  |  |  | 
CN(C(=O)CCN1Cc2cc(Cc3ccccc3)ccc2N=C1N)C1CCCCC1 [Compound 36, 3-(2-Amino-6-benzyl-4H-quinazolin-3-yl)-N-cyclohexyl-N-methyl-propionamide] | 2.3 µM |  |  |  | 
NC1=Nc2ccc(C(=O)c3ccccc3)cc2CN1CCC(=O)N(C1CCCCC1)C1CCCCC1 [Compound 39] | 1.3 µM |  |  |  | 
CN(C(=O)CCCCN1Cc2cc(C(=O)c3ccccc3)ccc2N=C1N)C1CCCc2ccccc21 (stereo not drawn) [Compound 54] | 2.3 µM |  |  |  | 
CN(C1CCCCC1)S(=O)(=O)CCN1Cc2cc(C(=O)c3ccccc3)ccc2N=C1N [Compound 57, 2-(2-Amino-6-benzoyl-4H-quinazolin-3-yl)-ethanesulfonic acid cyclohexyl-methyl-amide] | 1.4 µM |  |  |  | 
CN(C1CCCCC1)S(=O)(=O)CCN1Cc2cc(Oc3cccc(NC(=O)OCc4ccccc4)c3)ccc2N=C1N [Compound 71] | 2.6 µM |  |  |  | 
CN(C(=O)CCCCN1Cc2cc(Oc3cccc(NCC4CCCCC4)c3)ccc2N=C1N)C1CCCCC1 [Compound 96] | 0.78 µM |  |  |  | 
NC1=Nc2ccc(Oc3ccccc3)cc2CN1[C@@H](CCC(=O)N(CC(=O)O)C1CCCCC1)C1CCCCC1 [Compound 768, {[4-(2-Amino-6-phenoxy-4H-quinazolin-3-yl)-4S-cyclohexyl-butyryl]-cyclohexyl-amino}-acetic acid] |  | 0.013 µM | 122% | 120% | 126%
NC1=Nc2ccc(Oc3ccccc3)cc2CN1[C@@H](CCC(=O)N[C@@H](CO)C(=O)O)C1CCOCC1 [Compound 771] |  | 0.173 µM | 46% | 79% | 105%
CC(C)(C)OC[C@@H](NC(=O)CC[C@@H](C1CCOCC1)N1Cc2cc(Oc3ccccc3)ccc2N=C1N)C(=O)O [Compound 774, 2-[4-(2-Amino-6-phenoxy-4H-quinazolin-3-yl)-4S-(tetrahydro-pyran-4-yl)-butyrylamino]-3R-tert-butoxy-propionic acid] |  | 0.003 µM | 122% | 120% | 124%
COC(=O)[C@@H](COCc1ccccc1)N(C)C(=O)CC[C@@H](C1CCCCC1)N1Cc2cc(Oc3ccccc3)ccc2N=C1N [Compound 779] |  | 0.045 µM | 102% | 107% | 120%
COC(=O)[C@H](COCc1ccccc1)NC(=O)CC[C@@H](C1CCOCC1)N1Cc2cc(Oc3ccccc3)ccc2N=C1N [Compound 785] |  | 0.198 µM | 71% | 91% | 107%
COC(=O)[C@H](COCc1ccccc1)N(C)C(=O)CC[C@@H](C1CCOCC1)N1Cc2cc(Oc3ccccc3)ccc2N=C1N [Compound 786] |  | 0.101 µM | 97% | 105% | 114%
NC1=Nc2ccc(Oc3ccccc3)cc2CN1[C@@H](CCC(=O)N(Cc1nnn[nH]1)C1CCCCC1)C1CCCCC1 [Compound 787, 4-(2-Amino-6-phenoxy-4H-quinazolin-3-yl)-4S,N-dicyclohexyl-N-(1H-tetrazol-5-ylmethyl)-butyramide] |  | 0.038 µM | 108% | 109% | 121%

Continued, values first:

IC50 [1] | Ki [2] | inhibition at 0.3 µM [3] | inhibition at 1 µM [3] | inhibition at 3 µM [3] | Compound
5.1 µM |  |  |  |  | CN(C(=O)CCN1Cc2cc(C(=O)c3ccc(F)cc3)ccc2N=C1N)C1CCCCCC1 [Compound 5]
9.1 µM |  |  |  |  | CCN(C(=O)CCN1Cc2cc(C(=O)c3ccc(F)cc3)ccc2N=C1N)C1CCCCC1 [Compound 6]
91 µM |  |  |  |  | COCCN1Cc2cc(C(=O)c3ccccc3)ccc2N=C1N [Compound 18]
1.8 µM |  |  |  |  | CN(C(=O)CCN1Cc2cc(C(=O)c3ccccc3)ccc2N=C1N)C1CCCC1 [Compound 24]
5.5 µM |  |  |  |  | CN(C(=O)CCN1Cc2cc(C(=O)c3ccc(F)cc3)ccc2N=C1N)C1CCCC1 [Compound 25]
33 µM |  |  |  |  | CN(C(=O)CCN1Cc2ccc(C(=O)c3ccccc3)cc2N=C1N)C1CCCCC1 [Compound 35]
12 µM |  |  |  |  | CN(C(=O)CCN1Cc2cc(-c3noc4cc(F)ccc34)ccc2N=C1N)C1CCCCC1 [Compound 37]
9.8 µM |  |  |  |  | CN(CCc1ccccc1)C(=O)CCN1Cc2cc(C(=O)c3ccccc3)ccc2N=C1N [Compound 40]
5.1 µM |  |  |  |  | CN(C(=O)CCN1Cc2cc(C(=O)c3ccccc3)ccc2N=C1N)C12CC3CC(CC(C3)C1)C2 [Compound 41]
15 µM |  |  |  |  | CN(Cc1cccc2ccccc12)C(=O)CCN1Cc2cc(C(=O)c3ccccc3)ccc2N=C1N [Compound 42]
7.2 µM |  |  |  |  | CN(Cc1ccccc1)C(=O)CCN1Cc2cc(C(=O)c3ccccc3)ccc2N=C1N [Compound 43]
2.7 µM |  |  |  |  | CN(C(=O)CCN1Cc2cc(C(=O)c3ccccc3)ccc2N=C1N)C1CCCc2ccccc21 (stereo not drawn) [Compound 45]
4.2 µM |  |  |  |  | CN(Cc1ccccc1)C(=O)CCCCN1Cc2cc(C(=O)c3ccccc3)ccc2N=C1N [Compound 47]
4 µM |  |  |  |  | CN(C(=O)CCCCN1Cc2cc(C(=O)c3ccccc3)ccc2N=C1N)C12CC3CC(CC(C3)C1)C2 [Compound 48]
5.6 µM |  |  |  |  | CCCN1Cc2cc(Oc3cccc(NC(=O)c4ccccc4)c3)ccc2N=C1N [Compound 60]
0.66 µM |  |  |  |  | NC1=Nc2ccc(Oc3cccc(NC(=O)OCc4ccccc4)c3)cc2CN1CCCCC(=O)N(C1CCCCC1)C1CCCCC1 [Compound 75]
0.31 µM |  |  |  |  | NC1=Nc2ccc(Oc3cccc(NCC4CCCCC4)c3)cc2CN1CCCCO [Compound 95]
0.24 µM |  |  |  |  | NC1=Nc2ccc(Oc3cccc(NS(=O)(=O)c4ccccc4)c3)cc2CN1CCCCO [Compound 126]
0.15 µM |  |  |  |  | CN(C(=O)CCCCN1Cc2cc(Oc3cccc(NC(=O)OCc4ccccc4)c3)ccc2N=C1N)C1CCCCC1 [Compound 133]
4.7 µM |  |  |  |  | CCCN1Cc2cc(OCc3cccc(NS(=O)(=O)c4ccccc4)c3)ccc2N=C1N [Compound 203]
 | 0.028 µM | 102% | 111% | 119% | NC1=Nc2ccc(Oc3ccccc3)cc2CN1[C@@H](CCC(=O)N[C@H](CO)C(=O)O)C1CCOCC1 [Compound 773, 2-[4-(2-Amino-6-phenoxy-4H-quinazolin-3-yl)-4S-(tetrahydro-pyran-4-yl)-butyrylamino]-3R-hydroxy-propionic acid]
 | 0.107 µM | 41% | 95% | 117% | CN(C(=O)CCC(C1CCCCC1)N1Cc2cc(Oc3ccccc3)ccc2N=C1N)C1CCCC(C(=O)O)C1 (stereo not drawn) [Compound 776]
 | 0.015 µM | 104% | 107% | 113% | NC1=Nc2ccc(Oc3ccccc3)cc2CN1[C@@H](CCC(=O)N[C@@H](COCc1ccccc1)C(=O)O)C1CCOCC1 [Compound 782]
 | 0.301 µM | 109% | 110% | 121% | COC(=O)[C@@H](COCc1ccccc1)N(C)C(=O)CC[C@@H](C1CCOCC1)N1Cc2cc(Oc3ccccc3)ccc2N=C1N [Compound 783]
 | 0.298 µM | 107% | 108% | 120% | CN(C(=O)CC[C@@H](C1CCOCC1)N1Cc2cc(Oc3ccccc3)ccc2N=C1N)[C@H](COCc1ccccc1)C(=O)O [Compound 784, 2-{[4-(2-Amino-6-phenoxy-4H-quinazolin-3-yl)-4S-(tetrahydro-pyran-4-yl)-butyryl]-methyl-amino}-3R-benzyloxy-propionic acid]
